# Reference: patent publication US9745283B2, “Uracil derivatives as AXL and c-MET kinase inhibitors” (priority 2011, dated 2017)
# Assays:
# [1] = target: recombinant human baculovirus-expressed AXL (Homo sapiens (Human), UniProt P30530); test: AXL Kinase Assay (HTRF KinEASE); assay type: biochemical; conditions: average of two or more determinations
# Protocol: The ability of compounds to inhibit the kinase activity of recombinant human baculovirus-expressed AXL was measured by homogeneous TRF (HTRF) using Cisbio's KinEASE™ assay system in white 384-well Optiplates. Assay buffer contained 1 mM DTT, 2 mM MnCl2, 2% DMSO, […] supplement enzymatic buffer, and 1× enzymatic buffer. A 2× concentration of tyrosine kinase (TK) substrate-biotin/ATP mixture made in assay buffer was added to plates at 10 μL/well using the Multidrop Combi (Thermo Fisher Scientific, Waltham, Mass.). […] Compounds (100 nL), diluted in 100% DMSO on the Biomek FX, (Beckman Coulter, Inc., Brea, Calif.), were transferred to the assay plates using the Biomek FX pintool (2.5% final DMSO in assay). […] Plates were sealed, briefly shaken and incubated at 25° C. for 30 minutes. […] Plates were sealed, briefly shaken and incubated at 25° C. for 1 hour.
# Inhibition curves for compounds were generated by plotting percent control activity versus log 10 of the concentration of compound. IC50 values were calculated by nonlinear regression using the sigmoidal dose-response (variable slope) equation in GraphPad Prism as follows: y=bottom+(top−bottom)/(1+10(log IC50−x)*Hill Slope) where y is the % kinase activity at a given concentration of compound, x is the logarithm of the concentration of compound, bottom is the % of control kinase activity at the highest compound concentration tested, and top is the % of control kinase activity at the lowest compound concentration examined. The values for bottom and top were fixed at 0 and 100, respectively.
# [2] = target: recombinant human baculovirus-expressed cMET (Homo sapiens (Human), UniProt P08581); test: C-MET Kinase Assay (HTRF KinEASE); assay type: biochemical; conditions: average of two or more determinations; read-out: c-MET IC50
# How it was run: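 HTRF KinEASE format with recombinant human baculovirus-expressed cMET at 8 ng/mL, biotinylated peptide at 0.1 μM and ATP at 0.02 μM. IC50 came from percent control activity versus log concentration, fitted by nonlinear regression to a variable-slope sigmoidal equation with bottom fixed at 0 and top at 100.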
Structure (SMILES),IC50 [1] [µM],IC50 [2] [µM]
"COc1cc2nccc(Oc3ccc(NC(=O)c4c[nH]c(=O)n(-c5ccc(F)cc5)c4=O)cc3F)c2cc1OC [Example 17, 3-(4-Fluorophenyl)-2,4-dioxo-1,2,3,4-tetrahydropyrimidine-5-carboxylic acid [4-(6,7-dimethoxyquinolin-4-yloxy)-3-fluorophenyl]-amide]",< 0.01,< 0.01
"COc1cc2nccc(Oc3ccc(NC(=O)c4cn(C)c(=O)n(-c5ccc(F)cc5)c4=O)cc3)c2cc1OC [Example 18, 3-(4-Fluorophenyl)-1-methyl-2,4-dioxo-1,2,3,4-tetrahydropyrimidine-5-carboxylic acid [4-(6,7-dimethoxyquinolin-4-yloxy)-phenyl]-amide]",< 0.01,0.01 to 0.1
"COc1cc2nccc(Oc3ccc(NC(=O)c4cn(CCN(C)C)c(=O)n(-c5ccc(F)cc5)c4=O)cc3F)c2cc1OC [Example 20, 1-(2-Dimethylaminoethyl)-3-(4-fluorophenyl)-2,4-dioxo-1,2,3,4-tetrahydropyrimidine-5-carboxylic acid [4-(6,7-dimethoxyquinolin-4-yloxy)-3-fluorophenyl]-amide]",< 0.01,0.01 to 0.1
"COc1cc2nccc(Oc3ccc(NC(=O)c4cn(CCCOCc5ccccc5)c(=O)n(-c5ccc(F)cc5)c4=O)cc3)c2cc1OC [Example 21, 1-(3-Benzyloxypropyl)-3-(4-fluorophenyl)-2,4-dioxo-1,2,3,4-tetrahydropyrimidine-5-carboxylic acid [4-(6,7-dimethoxyquinolin-4-yloxy)phenyl]-amide]",< 0.01,0.01 to 0.1
"COc1cc2nccc(Oc3ccc(NC(=O)c4cn(CCCOCc5ccccc5)c(=O)n(-c5ccc(F)cc5)c4=O)c(F)c3)c2cc1OC [Example 22, 1-(3-Benzyloxypropyl)-3-(4-fluorophenyl)-2,4-dioxo-1,2,3,4-tetrahydropyrimidine-5-carboxylic acid [4-(6,7-dimethoxyquinolin-4-yloxy)-2-fluorophenyl]-amide]",< 0.01,0.01 to 0.1
"COc1cc2nccc(Oc3ccc(NC(=O)c4cn(C(C)C)c(=O)n(-c5ccc(F)cc5)c4=O)cc3)c2cc1OC [Example 23, 3-(4-Fluorophenyl)-1-isopropyl-2,4-dioxo-1,2,3,4-tetrahydropyrimidine-5-carboxylic acid [4-(6,7-dimethoxyquinolin-4-yloxy)phenyl]-amide]",< 0.01,< 0.01
"COc1cc2nccc(Oc3ccc(NC(=O)c4c[nH]c(=O)n(-c5ccc(F)cc5)c4=O)cc3)c2cc1OC [Example 24, 3-(4-Fluorophenyl)-2,4-dioxo-1,2,3,4-tetrahydropyrimidine-5-carboxylic acid [4-(6,7-dimethoxyquinolin-4-yloxy)phenyl]-amide]",< 0.01,< 0.01
"COc1cc2nccc(Oc3ccc(NC(=O)c4cn(CCN5CCCC5)c(=O)n(-c5ccc(F)cc5)c4=O)cc3F)c2cc1OC [Example 26, 3-(4-Fluorophenyl)-2,4-dioxo-1-(2-pyrrolidin-1-yl-ethyl)-1,2,3,4-tetrahydropyrimidine-5-carboxylic acid [4-(6,7-dimethoxyquinolin-4-yloxy)-3-fluorophenyl]-amide]",< 0.01,0.01 to 0.1
"COc1cc2nccc(Oc3ccc(NC(=O)c4cn(CCN5CCCCC5)c(=O)n(-c5ccc(F)cc5)c4=O)cc3F)c2cc1OC [Example 27, 3-(4-Fluorophenyl)-2,4-dioxo-1-(2-piperidin-1-yl-ethyl)-1,2,3,4-tetrahydropyrimidine-5-carboxylic acid [4-(6,7-dimethoxyquinolin-4-yloxy)-3-fluorophenyl]-amide]",< 0.01,0.01 to 0.1
"CCn1cc(C(=O)Nc2ccc(Oc3ccnc4cc(OC)c(OC)cc34)cc2)c(=O)n(-c2ccc(F)cc2)c1=O [Example 28, 1-Ethyl-3-(4-fluorophenyl)-2,4-dioxo-1,2,3,4-tetrahydropyrimidine-5-carboxylic acid [4-(6,7-dimethoxyquinolin-4-yloxy)-phenyl]-amide]",< 0.01,< 0.01
"COc1cc2nccc(Oc3ccc(NC(=O)c4cn(C5CCC5)c(=O)n(-c5ccc(F)cc5)c4=O)cc3F)c2cc1OC [Example 29, 1-Cyclobutyl-3-(4-fluorophenyl)-2,4-dioxo-1,2,3,4-tetrahydropyrimidine-5-carboxylic acid [4-(6,7-dimethoxyquinolin-4-yloxy)-3-fluorophenyl]-amide]",< 0.01,0.01 to 0.1
"COc1cc2nccc(Oc3ccc(NC(=O)c4cn(C5CCOCC5)c(=O)n(-c5ccc(F)cc5)c4=O)cc3F)c2cc1OC [Example 30, 3-(4-Fluorophenyl)-2,4-dioxo-1-(tetrahydropyran-4-yl)-1,2,3,4-tetrahydropyrimidine-5-carboxylic acid [4-(6,7-dimethoxyquinolin-4-yloxy)-3-fluorophenyl]-amide]",< 0.01,0.01 to 0.1
"CCn1cc(C(=O)Nc2ccc(Oc3ccnc4cc(OC)c(OC)cc34)cn2)c(=O)n(-c2ccc(F)cc2)c1=O [Example 31, 1-Ethyl-3-(4-fluorophenyl)-2,4-dioxo-1,2,3,4-tetrahydropyrimidine-5-carboxylic acid [5-(6,7-dimethoxyquinolin-4-yloxy)-pyridin-2-yl]-amide]",< 0.01,0.01 to 0.1
"CCn1c(C)c(C(=O)Nc2ccc(Oc3ccnc4cc(OC)c(OC)cc34)c(F)c2)c(=O)n(-c2ccc(F)cc2)c1=O [Example 32, 1-Ethyl-3-(4-fluorophenyl)-6-methyl-2,4-dioxo-1,2,3,4-tetrahydropyrimidine-5-carboxylic acid [4-(6,7-dimethoxyquinolin-4-yloxy)-3-fluorophenyl]-amide]",< 0.01,< 0.01
"CCOc1cc2nccc(Oc3ccc(NC(=O)c4cn(CC)c(=O)n(-c5ccc(F)cc5)c4=O)cc3F)c2cc1OCC [Example 33, 1-Ethyl-3-(4-fluorophenyl)-2,4-dioxo-1,2,3,4-tetrahydropyrimidine-5-carboxylic acid [4-(6,7-diethoxyquinolin-4-yloxy)-3-fluorophenyl]-amide]",< 0.01,0.01 to 0.1
"COc1cc2nccc(Oc3ccc(NC(=O)c4cn(C(C)C)c(=O)n(-c5ccc(F)cc5)c4=O)nc3)c2cc1OC [Example 34, 3-(4-Fluorophenyl)-1-isopropyl-2,4-dioxo-1,2,3,4-tetrahydropyrimidine-5-carboxylic acid [5-(6,7-dimethoxyquinolin-4-yloxy)-pyridin-2-yl]-amide]",< 0.01,0.01 to 0.1
"COc1cc2nccc(Oc3ccc(NC(=O)c4cn(CCO)c(=O)n(-c5ccc(F)cc5)c4=O)cc3F)c2cc1OC [Example 49, 3-(4-Fluorophenyl)-1-(2-hydroxyethyl)-2,4-dioxo-1,2,3,4-tetrahydropyrimidine-5-carboxylic acid [4-(6,7-dimethoxyquinolin-4-yloxy)-3-fluorophenyl]-amide]",< 0.01,< 0.01
"COc1cc2nccc(Oc3ccc(NC(=O)c4cn(CCCO)c(=O)n(-c5ccc(F)cc5)c4=O)cc3F)c2cc1OC [Example 50, 3-(4-Fluorophenyl)-1-(3-hydroxypropyl)-2,4-dioxo-1,2,3,4-tetrahydropyrimidine-5-carboxylic acid [4-(6,7-dimethoxyquinolin-4-yloxy)-3-fluorophenyl]-amide]",< 0.01,< 0.01
"COc1cc2nccc(Oc3ccc(NC(=O)c4cn(CCCO)c(=O)n(-c5ccc(F)cc5)c4=O)c(F)c3)c2cc1OC [Example 51, 3-(4-Fluorophenyl)-1-(3-hydroxypropyl)-2,4-dioxo-1,2,3,4-tetrahydropyrimidine-5-carboxylic acid [4-(6,7-dimethoxy-quinolin-4-yloxy)-2-fluoro-phenyl]-amide]",< 0.01,< 0.01
"COc1cc2nccc(Oc3ccc(NC(=O)c4cn(CCCO)c(=O)n(-c5ccc(F)cc5)c4=O)cc3)c2cc1OC [Example 52, 3-(4-Fluorophenyl)-1-(3-hydroxypropyl)-2,4-dioxo-1,2,3,4-tetrahydropyrimidine-5-carboxylic acid [4-(6,7-dimethoxyquinolin-4-yloxy)phenyl]-amide]",< 0.01,0.01 to 0.1
"COc1cc2nccc(Oc3ccc(NC(=O)c4cn(CCO)c(=O)n(-c5ccc(F)cc5)c4=O)cc3)c2cc1OC [Example 53, 3-(4-Fluorophenyl)-1-(2-hydroxyethyl)-2,4-dioxo-1,2,3,4-tetrahydropyrimidine-5-carboxylic acid [4-(6,7-dimethoxyquinolin-4-yloxy)phenyl]-amide]",< 0.01,< 0.01
"COc1cc2nccc(Oc3ccc(NC(=O)c4cn(C[C@H](O)CO)c(=O)n(-c5ccc(F)cc5)c4=O)cc3F)c2cc1OC [Example 54, 1-((S)-2,3-Dihydroxypropyl)-3-(4-fluorophenyl)-2,4-dioxo-1,2,3,4-tetrahydropyrimidine-5-carboxylic acid [4-(6,7-dimethoxyquinolin-4-yloxy)-3-fluorophenyl]-amide]",< 0.01,0.01 to 0.1
